Source: patent US4966962A, “Reverse analogue of actinomycin D” (Trustees of Boston University, priority 1988, dated 1990)
Like-named read-outs stand apart in the source and are kept apart here. *1 amine or outer side, *2 acyl side, *3 side chain or, on linkers, in order; H or OH if unused. Where a SMILES comes first, the peptide text is derived from it. Bridges are numbered along the chain shown (N, C = ends). Roman numbers before positions name the chains, in order. [ ]: non-standard residue; d: D form. Actinocin(9to1) = Cc1c2oc3c(C)ccc(C(=O)[*:1])c3nc-2c(C(=O)[*:2])c(N)c1=O; NMeV = CN[C@H](C(=O)O)C(C)C; Sar = CNCC(=O)O

Tests used:
[1] = system: supercoiled closed-circular pBR322 DNA; experiment: Cleavage of closed circular pBR322 DNA; type: biochemical; settings: for Percentage of closed circular pBR322 DNA cleaved: 20° C., 1 h, Na2S2O4, FeCl2
Procedure: The cleavage of DNA was followed by monitoring of the conversion of supercoiled closed-circular pBR322 DNA to open-circular DNA (analyzed by agarose gel electrophoresis and quantitated by staining with 0.5 ug/mL of ethidium bromide for 30 min and densitometry; (Table II). SAD and RAD show strong DNA-cleaving ability in the presence of sodium hydrosulfite and ferrous chloride. Presumably, sodium hydrosulfite acts as a reducing agent and regenerates Fe(II) from Fe(III) to produce a continuous source of the active metal ion. When the DNA-cleaving reaction with the analogues was performed at 20° C., the ratio of cleaved DNA (open circular form DNA versus closed circular DNA) was almost maximum within 1 h. […] Cleavage of DNA by the analogues is aided by the actinomycin chromopeptide moiety, which acts as a site-specific binder to DNA, and is effected by the aminoquinone function which is chelated to the ferrous ion during the process, and this is the likely candidate which generates the radical species.
Plasmid DNA pBR322 (0.5 ug) was dissolved in /8 μL of a reaction buffer (5 mM […], 10 mM Tris-HCl). To this solution, 1 μL of the 10 mM aqueous solution of the agent containing 1 mM FeCl2 was added. The mixture was incubated for 0.5-2 h at 20° or 37° C. Then, the incubation mixture was mixed with 10 uL of sample loading buffer (50% glycerin in 2 X Boyer's buffer containing 0.01% bromophenol blue). Finally, 5 uL of the mixture was analyzed by 0.7% agarose gel electrophoresis (120 V, Boyer's buffer; the migration distance of bromophenol blue was 5.0 cm). The gel was stained with […] of ethidium bromide and then quantitated by densitometry.
^a Ten microliters of 200 u M pBR322 DNA nucelotides in UM 10 mM
TrisHCl (pH 7.8) and 50 mM NaCl, containing 4 mM Na2 --S2
O4 and 100 μM FeCl2, was incubated with drug concentration a
20° C. for 1 h; the reaction mixture was kept saturated with air
throughout the incubation period.
^b Percentage of DNA was calculated from the amounts of openand
closedcir- cular DNA in the incubation mixture.

[2] = system: CX-1 human colon adenocarcinoma; experiment: Chemotherapy of human colon CX-1 tumor heterotransplanted in nude mice; type: in vivo, human tumor in athymic mice; settings: for % T/C, optimal: TST 15, observed day 22; for response of CX-1 tumor to treatment (in words): three iv treatments weekly from 15th day of transplant, at the doses tested
Procedure: Tables XI and XII show the effectiveness of SAD (2) and RAD (3b and 3c) against CX-1 human colon adenocarcinoma heterotransplanted into athymic mice, with three iv treatments with drugs on a weekly schedule starting on the 15th day of tumor transplant. AMD and the analogues were tested at doses of 45 and 60 ug/kg.
^a -, % T/C high than 50%; ±, % T/C close to 50%; +, % T/C from 50
to 35%; ++, % T/C from 35% to 20%; +++, % T/C lower than 20%; ++++,
regression of the tumor to a volume lower than 10% of the volume at the
start of treatment. ^b Statistically significant as evaluated by the
^a Intravenous treatment, once a week for three weeks; eight mice per
group. ^b TST; number of days between tumor transplant and starting o
treatment. ^c Numbers in parentheses; day of observation after the […]

[3] = system: mammary MX-1; experiment: Treatment of mammary MX-1 tumor; type: in vivo; settings: at the doses tested
[4] = system: P388 cells; experiment: Inhibition of nucleic acid synthesis in P388 cells in vitro; type: cell-based, murine
Source text: In addition to the P388 cells, this inhibitory activity in human carcinoma HT-29 grown in tissue culture has been also examined. The values of the drug concentration producing 50% inhibition of the incorporation of [^3 H]-thymidine and [^14 C] uridine into nucleic acid macromolecules are presented in Table V. These values are taken as estimates of the inhibition of DNA and RNA synthesis. […] Furthermore, the inhibitory activities of these analogues are three-to fivefold higher than AMD; the order of potency of the analogues for their inhibition of DNA synthesis is:
DNA and RNA synthesis in P388 and HT-29 cells lines was monitored in the presence of drugs, and the rates of inhibition of their synthesis were estimated from the amounts of [2-^14 C]-uridine and [^3 H]-thymidine into RNA and DNA, respectively, according to the methods described previously.
^a Human colon carcinoma in culture, IC50, drug concentration
producing a 50% inhibition of incorporation of precursor [^3 H]
thymidine into DNA and [^14 C] uridine into RNA in the cell lines,
isolated as acid preciptable materials. Data are average of replicate

[5] = Maximum tolerated dose (LD10) in tumor-free male mice; settings: ip days 1, 5, 9; deaths observed during 21 days; from plot of log dose vs percent mortality
Procedure: The analogues were also tested in tumor-free male mice for their LD10 values (Table XIV). The animals were given a broad range of doses (ip) on days 1, 5, and 9. The maximum tolerated doses of AMD and the analogues that caused death in only 10% of the tested animals in 21 days (i.e., LD10) were recorded as MTD. […] On the basis of these values, the calculated therapeutic index values of SAD is 96, and those of RAD I, II, and III are 60, 67, and 70, respectively.
control in P388 tumor bearing mice. ^c MTD (maximum tolerated dose) i
the lethal dose (milligram/kilogram) for 10% normal BDF1 male mice
days). Values were calculated from a plot of log dose vs percent

[6] = Toxic deaths in nontumored mice treated in parallel (colon 38 experiment); type: in vivo
Source text: × 100; in parenthesis, number of over 100 day survivors/number of
mice in a group of nontumored mice treated in parallel with the
tumorbearing mice and observed for 100 days.

[7] = system: P388/ADR (adriamycin resistant) leukemia; experiment: Antitumor activity in vivo, P388/ADR leukemia; design: species or system mice; settings: at optimal dose, ip days 1, 5, 9
Procedure: The analogues were also tested against P388/ADR murine leukemia following the standard protocol (Table VI).
ILS = percent increase in life span.

[8] = dose 45 μg/kg iv once a week for three weeks
[9] = dose 60 μg/kg iv once a week for three weeks
[10] = [3H]thymidine incorporation, read-out: IC50, DNA synth
[11] = [14C]uridine incorporation, read-out: IC50, RNA synth
[12] = dose 0.15 mg/kg iv days 1, 5, 9
[13] = dose 0.30 mg/kg iv days 1, 5, 9
[14] = dose 0.60 mg/kg iv days 1, 5, 9
[15] = dose 1.20 mg/kg iv days 1, 5, 9

SMILES	DNA cleaving efficiency relative to RAD III (3c) and SAD (2) [1]	Percentage of closed circular pBR322 DNA cleaved [1] [%]	Percentage of closed circular pBR322 DNA cleaved ([1]; concn 100 M (so in the source)) [%]	% T/C, optimal [2, 8] [%]	% T/C, optimal [2, 9] [%]	response of CX-1 tumor to treatment (in words) [2]	response of mammary MX-1 to treatment [3]	IC50 [4, 10] [nM]	IC50 [4, 11] [nM]	MTD (maximum tolerated dose), lethal dose for 10% of normal mice (LD10) [5] [milligram/kilogram]	toxic deaths ([6]; dose 0.075 mg/kg iv days 1, 5, 9)	toxic deaths [6, 12]	toxic deaths [6, 13]	toxic deaths ([6]; dose 0.45 mg/kg iv days 1, 5, 9)	toxic deaths [6, 14]	tumor free survivors/total on day 60 [7]	toxic deaths [6, 15]	Percentage of closed circular pBR322 DNA cleaved ([1]; concn 25 M (so in the source)) [%]	Percentage of closed circular pBR322 DNA cleaved ([1]; concn 50 M (so in the source)) [%]
Cc1c2oc3c(C)ccc(C(=O)N[C@@H]4C(=O)N[C@H](C(C)C)C(=O)N5CCC[C@H]5C(=O)N(C)CC(=O)N(C)[C@@H](C(C)C)C(=O)O[C@@H]4C)c3nc-2c(C(=O)N[C@@H]2C(=O)N[C@H](C(C)C)C(=O)N3CCC[C@H]3C(=O)N(C)CC(=O)N(C)[C@@H](C(C)C)C(=O)O[C@@H]2C)c(N)c1=O [AMD (1), Actinomycin D] (I: T[dV]P[Sar][NMeV] / II: T[dV]P[Sar][NMeV]; ester I:1-I:C, II:1-II:C; linker I:N-II:N via Actinocin(9to1))	about 30%	10	22	34	36	ineffective	practically ineffective	1100 ± 90	50 ± 5	0.25	0/9	1/9	0/9	1/9	4/9				
Cc1c2oc3c(C)c4oc(-c5ccccc5)nc4c(C(=O)N[C@@H]4C(=O)N[C@H](C(C)C)C(=O)N5CCC[C@H]5C(=O)N(C)CC(=O)N(C)[C@@H](C(C)C)C(=O)O[C@@H]4C)c3nc-2c(C(=O)N[C@@H]2C(=O)N[C@H](C(C)C)C(=O)N3CCC[C@H]3C(=O)N(C)CC(=O)N(C)[C@@H](C(C)C)C(=O)O[C@@H]2C)c(N)c1=O [RAD II (3b)]				48	24	marginal but positive activity		780 ± 66	70 ± 5	2.00		1/9	0/9		0/9	1/8	4/9		
Cc1c2oc3c(C)c4oc(CC(=O)NCCCCN)nc4c(C(=O)N[C@@H]4C(=O)N[C@H](C(C)C)C(=O)N5CCC[C@H]5C(=O)N(C)CC(=O)N(C)[C@@H](C(C)C)C(=O)O[C@@H]4C)c3nc-2c(C(=O)N[C@@H]2C(=O)N[C@H](C(C)C)C(=O)N3CCC[C@H]3C(=O)N(C)CC(=O)N(C)[C@@H](C(C)C)C(=O)O[C@@H]2C)c(N)c1=O [RAD III (3c)]		40	58	5	3	responded remarkably well to the treatment of RAD III at doses of 45 and 60 ug/kg	practically ineffective	430 ± 38	55 ± 7	3.50			0/9		4/9	2/8	2/9	45	50
Cc1c2oc3c(C)c(O)c(N)c(C(=O)N[C@@H]4C(=O)N[C@H](C(C)C)C(=O)N5CCC[C@H]5C(=O)N(C)CC(=O)N(C)[C@@H](C(C)C)C(=O)O[C@@H]4C)c3nc-2c(C(=O)N[C@@H]2C(=O)N[C@H](C(C)C)C(=O)N3CCC[C@H]3C(=O)N(C)CC(=O)N(C)[C@@H](C(C)C)C(=O)O[C@@H]2C)c(N)c1=O [SAD (2)]		35	65			responded fairly well to SAD treatment but at 60 ug/kg only	practically ineffective	12 ± 4	15	2.40			0/9		0/9	3/8	4/9	50	50
